Experimental data published in patent US8697747B2, “Enhancing coagulation or reducing fibrinolysis” (THe UAB Research Foundation, priority 2009, dated 2014).

Legend:
Assay type in all cases: biochemical, human
[1] = test system: factor IX deficient plasma; experiment: Thrombelastography, factor IX deficient plasma; conditions: 100 mmol CORM-2 vs control; FIX deficient plasma, 5 individuals
Description: (§1) Plasma deficient (<1% normal activity) in factor VIII (FVIII; 11 individuals), factor IX (FIX; 5 individuals), or factor VII (FVII; 4 individuals) was obtained from anonymous donors (George King Bio-Medical, Overland Park, Kans.) and was anticoagulated with sodium citrate. The final volume for all subsequently described plasma sample mixtures was […]. Sample composition consisted of […] of plasma, […] of tissue factor (0.1% final concentration in 0.9% NaCl; Diagnostica Stago, Asnieres, France), 3.6 mL of dimethyl sulfoxide (DMSO) or DMSO with CORM-2 ([…]; Sigma-Aldrich, St. Louis, Mo.), and 20 mL of […] CaCl2. […] (Motterlini et al. 2005). While CORM-2 decays slowly in DMSO, DMSO was added to the dry compound just prior to placement into the plasma mixture.
(§2) Plasma sample mixtures were placed in a disposable cup in a computer-controlled THROMBELASTOGRAPH® hemostasis system (Model 5000; Haemoscope Corp., Niles, Ill.), with addition of CaCl2 as the last step to initiate clotting. Data were collected until clot strength stabilized (maximum amplitude).
(§3) Statistical analyses. […] A paired student's t-test was used to analyze the effects of CORM-2 exposure in FVIII deficient individuals. The results of the FIX and FVII deficient groups were presented but not statistically analyzed secondary to the small number of individuals in each cohort. […] Statistical analyses and graphical representation of the data were generated with commercially available software (SigmaPlot 11.0; Systat Software Inc., San Jose, Calif.; CorelDRAW 12.0; Corel Corp., Ottawa, Ontario, Canada). A P value of less than 0.05 was considered significant.

[2] = test system: factor VIII deficient plasma; experiment: Thrombelastography, factor VIII deficient plasma; conditions: FVIII deficient plasma, 11 individuals, mean ± SD
Description: as §1, §2, §3

[3] = test system: pooled normal plasma; experiment: Thrombelastography/CLSM in pooled normal plasma (INR 1.0) with or without tPA
Description: Pooled normal plasma (George King Bio-Medical, Overland Park, Kans.) anticoagulated with sodium citrate was utilized for experimentation. […] Plasma anticoagulated with sodium citrate procured from anonymous donors treated with warfarin was also obtained from the same vendor.
Plasma sample composition of experiments without tPA addition. The final volume for all subsequently described plasma sample mixtures was 359.6 μL. Sample composition consisted of 326 μL of plasma, 10 μL of tissue factor reagent (0.1% final concentration in dH2O; Instrumentation Laboratory, Lexington, Mass.), 3.6 μL of dimethyl sulfoxide (DMSO) or DMSO with CORM-2 (100 μM final concentration; Sigma-Aldrich, St. Louis, Mo.), and 20 μL of 200 mM CaCl2. Tissue factor stock was kept on ice prior to use and was remade every two hours. […] DMSO was added to dry CORM-2 just prior to placement into the plasma mixture. Six replicate experiments were performed with pooled normal plasma with or without CORM-2 added, whereas plasma obtained from subjects treated with warfarin underwent singlicate experiments with or without CORM-2 exposure.
Plasma sample composition of experiments with tPA addition. As in the series of experiments without tPA addition, the final volume of plasma sample mixtures was 359.6 μL. Sample composition consisted of 316 μL of plasma; 10 μL of tissue factor reagent (0.1% final concentration); 3.6 μL of DMSO without or with CORM-2 (100 μM final concentration); 10 μL of tPA diluted with 10 mM potassium phosphate buffer (pH 7.4) for a final activity of 100 IU/mL; and 20 μL of 200 mM CaCl2. As with tissue factor reagent, tPA stock was kept on ice prior to use and was remade every two hours. Six replicate experiments were performed with pooled normal plasma with or without CORM-2 added, whereas plasma obtained from subjects treated with warfarin underwent singlicate experiments with or without CORM-2 exposure.
Clot Lifespan Model Analyses. Plasma sample mixtures were placed in a disposable cup in a computer-controlled THROMBELASTOGRAPH® hemostasis system (Model 5000, Haemoscope Corp., Niles, Ill.), with addition of CaCl2 as the last step to initiate clotting. In the first series of experiments, no tPA was added and data were collected until clot strength (maximum amplitude) was stable. In the second series of experiments in which tPA was added, data were collected until clot lysis time occurred. […] The nomenclature used to describe these phenomena is as follows: Time to maximum rate of thrombus generation (TMRTG): This is the time interval (sec) observed prior to maximum speed of clot growth. Maximum rate of thrombus generation (MRTG): This is the maximum velocity of clot growth observed (dynes/cm^2/sec). Total Thrombus Generation (TTG): This is the total area under the velocity curve during clot growth (dynes/cm^2), representing the amount of clot strength generated during clot growth. Time to maximum rate of lysis (TMRL): This is the time interval (sec) measured from the time of maximum strength to the time when the velocity of clot disintegration is maximal. Maximum Rate of Lysis (MRL): This is the maximum velocity of clot disintegration observed (—dynes/cm^2/sec). Area of Clot Lysis (ACL): This is the total area under the velocity curve during clot disintegration (−dynes/cm^2), representing the amount of clot strength lost during clot disintegration.

[4] = no tPA, 100 μM CORM-2, mean ± SD, n=6
[5] = tPA 100 U/ml, 100 μM CORM-2, mean ± SD, n=6
[6] = tPA 100 U/ml, 100 μM vs 0 μM CORM-2

[C-]#[O+].[C-]#[O+].[C-]#[O+].[C-]#[O+].[C-]#[O+].[C-]#[O+].[Cl][Ru][Cl].[Cl][Ru][Cl] [CORM-2, tricarbonyldichlororuthenium (II) dimer]
effect on MRTG (speed of clot formation) [1]: four of five individuals had an increase in the speed of clot formation | effect on TMRTG [1]: decreased the TMRTG value of all five individual plasma samples tested | effect on TTG [1]: All individual plasma samples demonstrated an increase in TTG | TMRTG (time to maximum rate of thrombus generation) ([2]; 100 mmol CORM-2): 4.0 ± 2.3 min | TTG (total thrombus generation) ([2]; 100 mmol CORM-2): 232±56 dynes/cm^2 | MRTG (maximum rate of thrombus generation) ([2]; CORM-2): 5.0±2.7 dynes/cm^2/sec | MRTG (maximum rate of thrombus generation) [3, 4]: 15.0 ± 2.4 dynes/cm^2/sec | TMRTG (time to maximum rate of thrombus generation) [3, 4]: 2.26 ± 0.03 min | TTG (total thrombus generation) [3, 4]: 285 ± 38 dynes/cm^2 | Percent Change of MRTG ([3]; no tPA, 100 μM vs 0 μM CORM-2): 102% | Percent Change of TMRTG ([3]; no tPA, 100 μM vs 0 μM CORM-2): −5% | Percent Change of TTG ([3]; no tPA, 100 μM vs 0 μM CORM-2): 70% | CGT (clot growth time) [3, 5]: 7.00 ± 0.94 min | CLS (clot lifespan) [3, 5]: 39.07 ± 2.82 min | CLT (clot lysis time) [3, 5]: 32.07 ± 3.15 min | MRL (maximum rate of lysis) [3, 5]: −2.4 ± 0.5 −dynes/cm^2/sec | MRTG (maximum rate of thrombus generation) [3, 5]: 15.2 ± 1.3 dynes/cm^2/sec | TMRL (time to maximum rate of lysis) [3, 5]: 22.92 ± 1.93 min | TMRTG (time to maximum rate of thrombus generation) [3, 5]: 2.14 ± 0.05 min | TTG (total thrombus generation) [3, 5]: 284 ± 27 dynes/cm^2 | Percent Change of CGT [3, 6]: 58% | Percent Change of CLS [3, 6]: 91% | Percent Change of CLT [3, 6]: 100% | Percent Change of MRL [3, 6]: 68% | Percent Change of MRTG [3, 6]: 97% | Percent Change of TMRL [3, 6]: 103% | Percent Change of TMRTG [3, 6]: −2% | Percent Change of TTG [3, 6]: 106%
